From US20010014357A1, “Citrus peel extract as inhibitor of ACYL coa-cholesterol-o-acyltransferase, inhibitor of macrophage-lipid complex accumulation on the arterial wall and preventive or treating agent for hepatic diseases” (priority 1997, published 2001) come the findings set out here.

Assay [1] relates to hepatic cells (fatty liver). Put plainly: Histopathological observation of the livers of cholesterol-fed rabbits. Particulars: 1% cholesterol diet plus 0.1% flavonoid or 1 mg/kg Lovastatin, eight weeks, H&E stain. The class given is in vivo, New Zealand White rabbits.
Protocol: The same procedure as in (Step 1) was repeated except that 40 three-month-old New Zealand White rabbits (Yeonam Horticulture and Animal Husbandry College, Korea) each weighing about 2.5 to 2.6 kg were used in place of the rats, and the rabbits were fed for eight weeks with four different diets, i.e., RC4 diet containing 1% cholesterol (Control group); 1% cholesterol plus 1 mg/kg Lovastatin® (Comparative group); 1% cholesterol plus 0.1% hesperidin; and 1% cholesterol plus 0.1% naringin, respectively.
Thereafter, the livers were separated from the rabbits and the histopathological observations were carried out as follows.
The rabbits were anesthetized with an intramuscular injection of ketamine (75 mg/kg) and subjected to an abdominal incision. […] The fixed liver was washed sufficiently with water, dehydrated stepwise with 70%, 80%, 90% and 100% ethanol and, then, embedded in paraffin. The embedded liver was sectioned in 4 μm thickness with a microtome and stained with hematoxylin and eosin. The stained liver specimen was made transparent with xylene, mounted with permount, and then observed under a microscope to confirm the presence of lesions.
A short description of assay [2]: Serum GOT, GPT and γGTP levels in men given oral naringin. The assay is classed as in vivo, human. Particulars: person, oral 10 mg/kg daily, day 68. How it is done:
Naringin was orally administered to a person at a daily dose of 10 mg/kg for 68 days and serum GOT, GPT and γGTP levels were determined just before the administration (day 0), and 45 and 68 days after the administration (day 45 and day 68), respectively. Consequently, serum GOT- levels at day 45 and day 68 decreased by 17%, respectively, in comparison to that of day 0. Serum GPT levels at day 45 and day 68 decreased by 15% and 19%, respectively, in comparison to that of day 0. Further, serum γGTP levels at day 45 and day 68 decreased by 25% and 51%, respectively, in comparison to that of day 0.
On the other hand, naringin was orally administered to a person, who had drunk alcoholic beverages habitually in an amount of 100 cc per day, at a daily dose of 6 mg/kg for 30 days and serum γGTP level was determined just before the administration (day 0) and 30 days after the administration (day 30). Consequently, initial serum γGTP level at day 0 was 129 IU/l, while that of day 30 decreased to 69 IU/l which is within the normal range.

Assay [3] is described as follows: Serum GOT and GPT levels in rats on a high-cholesterol diet. The assay is classed as in vivo, Sprague-Dawley rats. Particulars: 1% cholesterol diet plus 0.02% naringin or citrus peel extract (0.04% hesperidin equivalent), six weeks. The text has this:
30 four-week-old Sprague-Dawley rats (Taihan laboratory animal center, Korea) each weighing about 90 to 110 g were evenly divided into three dietary groups by a randomized block design. The rats of the three groups were fed with three different high-cholesterol diets, i.e., AIN-76 laboratory animal diet (ICN Biochemicals, Cleveland, Ohio, U.S.A.) containing 1% cholesterol(Control group), 1% cholesterol plus 0.02% naringin, and 1% cholesterol plus citrus peel extract prepared in Example 2(1) in an amount equivalent to 0.04% hesperidin, respectively.
The effect of administering naringin and citrus peel extract to rats on the function of the liver was examined as follows.
Blood samples were taken from the rats of the three dietary groups and serum GOT (glutamate-oxaloacetate transaminase) and GPT (glutamate-pyruvate transaminase) levels were determined in accordance with the method of Reitman and Frankel (Reitman, S. and J. S. Frankel, Am. J. Clin. Pathol., 28, 56 (1956)). GOT and GPT are synthesized in the liver and heart, and released into blood stream upon the damage of these organs. Accordingly, GOT and GPT are representative markers of the liver-function and high serum GOT and GPT levels mean severe damage of the liver.

Assay [4] has as its system macrophage-lipid complex accumulated on the arterial endothelium. Put plainly: Analysis for fatty streak (macrophage-lipid complex) in the main artery of cholesterol-fed rabbits. The assay is classed as in vivo, New Zealand White rabbits. The following applies: 1% cholesterol diet plus 0.1% flavonoid or 1 mg/kg Lovastatin; for area of macrophage-lipid complex accumulated on the arterial endothelium compared to the control group / M-L (macrophage-lipid) complex area: 6 weeks; for layer of macrophage-lipid complex observed on the arterial endothelium (FIGS. 1B-1D): control shows a thick layer; for M-L (macrophage-lipid) complex area: Oil Red O stained area as proportion of total arterial area, control group 35. The text has this:
RC4 diet comprises 7.6% moisture, 22.8% crude protein, 2.8% crude fat, 8.8% crude ash, 14.4% crude cellulose and 43.6% soluble nitrogen-free substances. The rabbits were bred for 6 weeks while being allowed free access to the diets and water. The rabbits bred in (Step 1) were sacrificed and their chest were incised. The main artery was cut out therefrom in a length of about 5 cm downward from the site 1 cm above the aortic valve and the fat surrounding the main artery was removed. The main artery was incised in the middle along the longitudinal axis and pinned to a dish. The moist artery was photographed and, then, staining of fatty streak was carried out in accordance with the method of […]., et al.(J. Lab. Clin. […] A part of the incised main artery was washed three times by 2 min. with anhydrous propylene glycol and stained for 30 min. with a saturated solution of Oil Red O (ORO, Sigma Co.) dissolved in propylene glycol. Thereafter, the artery was washed twice by 3 min. with 85% propylene glycol to remove remaining staining solution and, then washed with physical saline. The artery was photographed and the photograph was traced. The area of stained region (fatty streak region) was determined with an image analyzer (LEICA, Q-600, Germany) and its proportion(%) to the total arterial area was calculated. On the other hand, the other part of the main artery was stained in accordance with hematoxylin-eosin (H&E) and Masson's trichrome staining methods and observed under a microscope to confirm whether the macrophage-lipid complexes were accumulated in the intima, internus, elastic lamina and media.

The nature of assay [5]: Blood total cholesterol and triglyceride levels in cholesterol-fed rabbits. The class given is in vivo, New Zealand White rabbits. Particulars: 1% cholesterol diet plus 0.1% flavonoid or 1 mg/kg Lovastatin, 6 weeks. How it is done: RC4 diet comprises 7.6% moisture, 22.8% crude protein, 2.8% crude fat, 8.8% crude ash, 14.4% crude cellulose and 43.6% soluble nitrogen-free substances. The rabbits were bred for 6 weeks while being allowed free access to the diets and water. Further, blood samples were taken from the rabbits and total cholesterol and triglyceride levels were determined in accordance with the same procedure in Example 5.

Structures are written as SMILES.

Take `C[C@@H]1O[C@@H](O[C@H]2[C@H](Oc3cc(O)c4c(c3)O[C@H](c3ccc(O)cc3)CC4=O)O[C@H](CO)[C@@H](O)[C@@H]2O)[C@H](O)[C@H](O)[C@H]1O` [naringin]: in assay [1], the “microscopic features of the hepatic cells (FIGS. 2B-2D)” value (“microscopic features” for short) was “normal and the deposition of fat is not observed”. Besides, the “decrease of serum γGTP level in comparison to day 0” value in assay [2] is listed as 51%. In addition, in assay [3], the “serum GOT level, lower than that of the control group” value is listed as “about 30%” and the “serum GPT level, lower than that of the control group” value is listed as ~10%. Moreover, in assay [4], the “area of macrophage-lipid complex accumulated on the arterial endothelium compared to the control group” value (shortened to “area … compared to the control group”) is “decreased significantly” and the “layer of macrophage-lipid complex observed on the arterial endothelium (FIGS. 1B-1D)” value (“layer” below) is recorded as “no or very thin layers”.
Regarding `CC[C@H](C)C(=O)O[C@H]1C[C@@H](C)C=C2C=C[C@H](C)[C@H](CC[C@@H]3C[C@@H](O)CC(=O)O3)[C@H]21` [Lovastatin, reference compound], in assay [1], the “microscopic features” value was “irregularly arranged and enlarged and a large amount of fat is deposited therein”. Besides, in assay [4], the “area … compared to the control group” value was “decreased significantly” and the “layer” value is “no or very thin layers”.
As for `COc1ccc([C@@H]2CC(=O)c3c(O)cc(O[C@@H]4O[C@H](CO[C@@H]5O[C@@H](C)[C@H](O)[C@@H](O)[C@H]5O)[C@@H](O)[C@H](O)[C@H]4O)cc3O2)cc1O` [hesperidin], in assay [1], the “microscopic features” value was “normal and the deposition of fat is not observed”. Further, in assay [5], the Total cholesterol amounted to 1130 mg/dL and the Triglyceride was determined as 40 mg/dL. For the same compound, in assay [4], the “area … compared to the control group” value was “decreased significantly”, the “M-L (macrophage-lipid) complex area” value is on record as 13.5% and the “layer” value is “no or very thin layers”.
In the case of `O=C1C[C@@H](c2ccc(O)cc2)Oc2cc(O)cc(O)c21` [naringenin], in assay [4], the “area … compared to the control group” value was “decreased significantly”.
As for `COc1ccc([C@@H]2CC(=O)c3c(O)cc(O)cc3O2)cc1O` [hesperetin], in assay [5], the Total cholesterol was 1150 mg/dL and the Triglyceride came to 41 mg/dL. In addition, in assay [4], the “area … compared to the control group” value was “decreased significantly” and the “M-L (macrophage-lipid) complex area” value stood at 13%.
